Test results taken from US11389413B2, “Methods of preparing compositions containing thymoquinone” (Jina Pharmaceuticals, Inc., priority 2017, dated 2022).

What was measured:
[1] = tested on: Lipopolysaccaride/D-Galactosamine (LPS/GaIN) induced acute liver failure; assay: LPS/GalN induced acute liver failure, survival; assay type: in vivo, Male C57BL6 mice; conditions: TQ 200 mg/kg oral gavage 30 min after LPS/GalN injection; all control mice died in over 7 hrs
Method: A total of 13 male C57BL6 mice (5-6 weeks of age) were injected intraperitoneally with D-galactosamine (GaIN, Carbosynth) (800 mg/kg) and lipopolysaccharide (LPS from E coli 0127:B8, Sigma-Aldrich) (10 μg/kg) dissolved in normal saline. 30 min after LPS/GalN injection, 6 mice in the control group received purified water (20 mL/kg) and 7 mice received a TQ at a dose of 200 mg/kg, via oral gavage. Survival was monitored for 48 hrs. All mice in the control group died in over 7 hrs. period following the injection of LPS/GalN, while 4 out of 7 mice treated with TQ survived up to 48 hrs. (see FIG. 2).

[2] = cited from earlier work
[3] = cited from earlier work; remark: listed apart in the source
[4] = tested on: streptozotocin (STZ) induced diabetic mice; assay: Hypoglycemic activity in streptozotocin-induced diabetic mice (blood glucose, water intake); assay type: in vivo, Male ICR (CD-1) mice
Method: Induction of Experimental Diabetes in Mice: Male ICR (CD-1) mice (8-9 weeks of age) were fasted for 6 hrs. before streptozotocin (STZ) administration. Fresh STZ solution at 15 mg/mL was prepared by dissolving powder STZ into 1 mM citrate buffer (pH 4.5). Mice received i.p. STZ solution of 150 mg/kg. Fasting blood glucose level was measured from tail vein blood. Mice with blood glucose levels of 250 mg/dL or higher were considered to be diabetic. Blood samples with “HI” (>600 mg/dL) reading were diluted with same amount of normal saline before measuring again.
A total of 20 diabetic mice were randomized based on the blood glucose levels into two study groups, group A: Metformin (Met)-treated, and group B: Thymoquinone/Metformin (TQ/Met)-treated groups.
There were 10 animals in each group. Mice in group A received oral administration of Met at a dose of 200 mg/kg every day. Mice in group B received oral administration of Met+TQ (200 mg/kg+50 mg/kg) every day using a 20-Ga stainless feeding needle. Fasting blood glucose level was measured weekly.
Water intake was also estimated by weighing each water bottle before and after a period of 24 hrs. The volume of water consumed was estimated from the weight of water consumed. The volume of water consumed by each cage was normalized with body weight and presented as mL/30 g BW over 24 hrs.

Compound	mice surviving up to 48 hrs [1]	stability in aqueous solutions [2]	solubility in aqueous buffers [3]	Blood Glucose Level, Pre-Treat ([4]; fasting blood glucose, STZ diabetic mice, before treatment, Mean ± SD, n = 10)	Blood Glucose Level, 1-Week Treat ([4]; fasting blood glucose, oral daily dosing, 1 week, Mean ± SD, n = 10)	Blood Glucose Level, 2-Week Treat ([4]; fasting blood glucose, oral daily dosing, 2 weeks, Mean ± SD, n = 10)	Blood Glucose Level, 3-Week Treat ([4]; fasting blood glucose, oral daily dosing, 3 weeks, Mean ± SD, n = 10)	decrease in blood glucose level ([4]; over 3-week period, oral daily, Met 200 mg/kg, Met+TQ 200 mg/kg+50 mg/kg)
CC1=CC(=O)C(C(C)C)=CC1=O [TQ, 2-Isopropyl-5-methyl-1,4-benzoquinone]	4 out of 7	highly unstable	approx. 500 μg/mL					
CN(C)C(=N)N=C(N)N [Met, Metformin]				443 ± 102 mg/dL	433 ± 115 mg/dL	290 ± 84 mg/dL	299 ± 96 mg/dL	32.5%
